According to ChEMBL document CHEMBL1135121, “Design and synthesis of some new pyranoxanthenone aminoderivatives with cytotoxic activity” (Bioorg Med Chem Lett, 2002):

Key:
[1] = system: HT-29; test: Inhibitory concentration of compound against proliferation of colon carcinoma HT-29 cell line; type: functional, cell-based; conditions: Homo sapiens
[2] = system: A549; test: Inhibitory concentration of compound against proliferation of lung carcinoma A549 cell line; type: functional, cell-based; conditions: Homo sapiens
[3] = system: L1210; test: Inhibitory concentration of compound against proliferation of murine leukemia L1210 cell line; type: functional, cell-based; conditions: Mus musculus
[4] = system: Calf thymus DNA; test: In vitro calf thymus DNA binding affinity by ethidium bromide displacement; type: nucleic-acid assay, Bos taurus
[5] = system: HT-29; test: Cell-cycle-phase distribution of HT-29 cell-cultures exposed to 10 uM concentration of compound for 22 hr in G2/M phase; type: functional, Homo sapiens
[6] = system: HT-29; test: Cell-cycle-phase distribution of HT-29 cell-cultures exposed to 10 uM concentration of compound for 22 hr in G0/G1 phase; type: functional, Homo sapiens
[7] = system: HT-29; test: Cell-cycle-phase distribution of HT-29 cell-cultures exposed to 10 uM concentration of compound for 22 hr in S phase; type: functional, Homo sapiens
[8] = system: Nucleic Acid; test: In vitro DNA binding affinity for calf thymus DNA was determined using ethidium bromide displacement assay; Not detected; type: nucleic-acid assay, Bos taurus

Row | SMILES | IC50 [1] | IC50 [2] | IC50 [3] | EC50 [4] | Activity [5] | Activity [6] | Activity [7] | EC50 [8]
1 | COc1cc2c(c3c1c(=O)c1ccccc1n3C)C=CC(C)(C)O2 [ACRONINE] | > 100 µM | > 100 µM | 27 µM | 82 µM | – | – | – | –
2 | CN(C)CCNc1cc2c(c3oc4ccccc4c(=O)c13)C=CC(C)(C)O2 | 8 µM | 23 µM | 7.1 µM | 89 µM | – | – | – | –
3 | CN(C)CCNCc1c2c(cc3oc4ccccc4c(=O)c13)OC(C)(C)C=C2 | 6.4 µM | 25 µM | 4 µM | 39 µM | – | – | – | –
4 | CN(C)CCNCc1cc2c(c3oc4ccccc4c(=O)c13)C=CC(C)(C)O2 | 8.8 µM | 44 µM | 4.1 µM | 74 µM | – | – | – | –
5 | CCN(CC)CCNCc1cc2c(c3oc4ccccc4c(=O)c13)C=CC(C)(C)O2.O=C(O)/C=C/C(=O)O | 1.7 µM | 11 µM | 2 µM | 42 µM | 7.77 | 79.7 | 12.53 | –
6 | CCN(CC)CCNc1cc2c(c3oc4ccccc4c(=O)c13)C=CC(C)(C)O2 | 42 µM | > 100 µM | 8.4 µM | 88 µM | – | – | – | –
7 | CN(C)CCNC(=O)c1cc2c(c3oc4ccccc4c(=O)c13)C=CC(C)(C)O2 | 12 µM | 90 µM | 16 µM | 197 µM | – | – | – | –
8 | CCN(CC)CCNC(=O)c1cc2c(c3oc4ccccc4c(=O)c13)C=CC(C)(C)O2 | 30 µM | 60 µM | 10 µM | 150 µM | – | – | – | –
9 | CN(C)CCNc1c2c(cc3oc4ccccc4c(=O)c13)OC(C)(C)C=C2.Cl | 23 µM | 30 µM | 5.8 µM | – | – | – | – | Not detected
10 | CCN(CC)CCNc1c2c(cc3oc4ccccc4c(=O)c13)OC(C)(C)C=C2.Cl | 8 µM | 25 µM | 5.1 µM | – | – | – | – | Not detected
11 | CCN(CC)CCNC(=O)c1c2c(cc3oc4ccccc4c(=O)c13)OC(C)(C)C=C2 | 40 µM | 51 µM | 9 µM | 100 µM | 37.7 | 61.24 | 1.06 | –
12 | CCN(CC)CCNCc1c2c(cc3oc4ccccc4c(=O)c13)OC(C)(C)C=C2.Cl | 2 µM | 8 µM | 2 µM | 30 µM | 8.86 | 69.92 | 21.22 | –
13 | O=C1c2c(O)ccc(O)c2C(=O)c2c(NCCNCCO)ccc(NCCNCCO)c21 [MITOXANTRONE] | 8 µM | 0.3 µM | 0.04 µM | 0.4 µM | – | – | – | –
14 | CN(C)CCNC(=O)c1c2c(cc3oc4ccccc4c(=O)c13)OC(C)(C)C=C2 | 60 µM | 57 µM | 12 µM | 107 µM | – | – | – | –
